{"source": "patent US20050288338A1", "about": "“Amido compounds and their use as pharmaceuticals” (priority 2004, published 2005)", "origin": "cited, not measured here", "biological_target": "T1, 11βHSD1 in the eye (Homo sapiens, UniProt P28845)", "T1 construct": "host or cells: eye of healthy human volunteers (in vivo)", "T1 sequence (P28845 whole entry)": "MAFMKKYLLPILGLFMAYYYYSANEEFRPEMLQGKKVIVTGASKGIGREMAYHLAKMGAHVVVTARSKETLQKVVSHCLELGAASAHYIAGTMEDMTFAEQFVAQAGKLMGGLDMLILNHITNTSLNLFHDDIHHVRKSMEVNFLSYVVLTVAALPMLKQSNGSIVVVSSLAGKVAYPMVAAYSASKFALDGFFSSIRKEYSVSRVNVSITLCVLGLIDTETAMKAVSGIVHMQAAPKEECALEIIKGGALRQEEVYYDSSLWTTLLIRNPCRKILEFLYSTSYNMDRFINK", "conditions": "healthy volunteers, after seven days of carbenoxolone treatment", "data": [{"smiles": "CC1(C)[C@@H](OC(=O)CCC(=O)O)CC[C@]2(C)[C@H]3C(=O)C=C4[C@@H]5C[C@@](C)(C(=O)O)CC[C@]5(C)CC[C@@]4(C)[C@]3(C)CC[C@@H]12", "note": "[carbenoxolone]", "values": [{"measurement": "IOP was reduced by", "result": 18, "unit": "%"}]}]}
